Like-named read-outs stand apart in the source and are kept apart here.
Molecular target: rat α3/β4 nAChR (Rattus norvegicus, UniProt P04757+P12392)
Settings: 60 pM [3H]-EB; for retention volume of [3H]-EB: 9.5 ml without competitor
Protocol: The cultured cells in which rat α3/β4 subtype of neural nicotinic acetylcholine receptor (nAChR) were expressed by transfected cell line KXα3β4R2 were harvested in 30 ml of Tris-HCl buffer (50 mM, pH 7.4) and homogenized for 20 minutes with a Brinkman Polytron homogenizer. The homogenates were centrifuged at 35,000×g for 10 minutes and the supernatant was discarded. The resulting pellets were suspended in 6 ml of 2% cholate in Tris-HCl buffer (50 mM, pH 7.4) and stirred for two hours in an ice bath. After centrifugation at 35,000×g, the supernatant was collected for the immobilization. IAM packing materials (200 mg) were washed three times by centrifugation with Tris-HCl buffer (50 mM, pH 7.4). The IAM materials were suspended in 4 ml of receptor-detergent solution, stirred for one hour at room temperature and dialyzed against 2×1 L buffer for 24 hours at 4° C. When detergents were depleted from the mixture, the receptors were hydrophobically entrapped in the phospholipid monolayer on the surface of IAM materials. The receptor-IAM materials were washed with buffer by centrifugation at 4000×g.
The NR(α4β2)-IAM packing materials were packed in an HR glass column (Pharmacia Biotech) and connected with an HPLC pump. […] The elution profile was monitored by an on-line radioactivity HPLC detector.
The resulting column was used in the LC study of drug-NR binding using frontal chromatographic techniques with [^3H]-epibatidine (EB) as the marker ligand. A series of [^3H]-EB concentrations ranging from 60 pM to 600 pM were pumped through the (α3/β4)NR-IAM column2 to obtain elution profiles showing front and plateau regions. The concentration of the [^3H]-EB in the column eluent was monitored by an LC on-line radioactivity detector.
The binding of the [^3H]-EB on the (α3/β4)NR-IAM column was be altered by the addition of competitive NR-ligands to the mobile phase.

Chain of rat α3/β4 nAChR (P04757 26-499): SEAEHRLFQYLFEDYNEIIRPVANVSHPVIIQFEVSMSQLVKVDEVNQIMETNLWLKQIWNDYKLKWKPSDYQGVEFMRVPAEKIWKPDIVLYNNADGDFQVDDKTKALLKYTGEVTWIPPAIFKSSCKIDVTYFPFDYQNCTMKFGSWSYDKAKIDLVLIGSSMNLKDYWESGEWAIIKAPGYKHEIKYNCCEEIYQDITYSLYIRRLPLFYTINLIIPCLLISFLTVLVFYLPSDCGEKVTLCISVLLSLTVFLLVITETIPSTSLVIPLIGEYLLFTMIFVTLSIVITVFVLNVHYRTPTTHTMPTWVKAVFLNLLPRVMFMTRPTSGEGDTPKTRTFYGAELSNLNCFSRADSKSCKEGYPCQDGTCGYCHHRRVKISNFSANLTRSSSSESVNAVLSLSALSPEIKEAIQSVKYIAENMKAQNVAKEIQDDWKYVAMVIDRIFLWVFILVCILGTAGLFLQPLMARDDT
Chain of rat α3/β4 nAChR (P12392 22-495 limits assumed): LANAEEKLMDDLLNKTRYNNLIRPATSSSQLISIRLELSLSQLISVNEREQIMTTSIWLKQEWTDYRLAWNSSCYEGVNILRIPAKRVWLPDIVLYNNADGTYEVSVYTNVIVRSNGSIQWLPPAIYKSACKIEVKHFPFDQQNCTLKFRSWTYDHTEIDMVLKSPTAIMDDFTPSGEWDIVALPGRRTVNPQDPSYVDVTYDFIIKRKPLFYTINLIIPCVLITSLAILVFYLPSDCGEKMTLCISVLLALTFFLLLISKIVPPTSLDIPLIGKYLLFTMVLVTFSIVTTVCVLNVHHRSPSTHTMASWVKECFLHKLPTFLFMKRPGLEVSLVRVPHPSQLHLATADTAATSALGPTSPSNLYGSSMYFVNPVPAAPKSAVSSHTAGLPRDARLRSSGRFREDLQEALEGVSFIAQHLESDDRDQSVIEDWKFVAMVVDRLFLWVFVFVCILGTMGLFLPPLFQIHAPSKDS

Row | SMILES | mobile phase concentration required to decrease the retention volume of [3H]-EB from 9.5 ml to 6 ml [pM] | retention volume of [3H]-EB (10 nM A85380 in mobile phase) [mL] | retention volume of [3H]-EB (100 nM A85380 in mobile phase) [mL]
1 | Clc1ccc(C2CC3CCC2N3)cn1 (racemic) [(±)-EB, epibatidine] | 120 |  | 
2 | c1cncc(OC[C@@H]2CCN2)c1 [A85380] | 1.7e+10 | 6.6 | 1.9
3 | C[N+](C)(C)CCOC(N)=O [carbachol] | 1.3e+06 |  | 
4 | CN1CCCC1c1cccnc1 (stereo not drawn) [nicotine] | 45000 |  | 
